Target: T1, PDE-4A (Homo sapiens, UniProt P27815)
T1 construct: PDE-4A catalytic domain comprising amino acids 342-704; made in house; host or cells: Escherichia coli
Assay: PDE-4A inhibitory assay (SPA)
Assay type: biochemical
Description: Human recombinant PDE-4A catalytic domain comprising amino acids 342-704 was cloned into Escherichia coli and expressed, as described by W. Richter et al., Protein Expression and Purification (2000) 19: 375-383. The other posphodiesterases were either obtained from cell lines of human origin (TPH1 monocytes line for PDE-1, MCF7 for PDE-5) or expressed recombinantly in sf9 insect cells (for PDE-3A, PDE-3B, PDE-7A and PDE-4D) in accordance with an adapted method by Luckow, V. A. et al., in: Recombinant DNA Technology & Applications., (1991) eds. Prokop, Bajpai, R. K. & Ho, C. S., pp 97-152.
The phosphodiesterase activity was determined by the SPA assay as described by the manufacturer Amersham Biosciences and by Horton J. K and Baxendale P. M., Methods Mol. Biol. (1995) 41: 91-105.
The reaction mixtures contained 100 mM Tris-HCl (pH 7.5), 5 mM MgCl2, 3.8 mM 2-mercaptoethanol, and 1 μM cAMP or cGMP as a substrate, the inhibitors at different concentrations and also further components required for the detection of the individual isoenzymes (see below). The reaction was started by adding the enzyme. The operating volume is 100 μl in the wells of a white 96-Well microtiter plate. The test substances were produced as stock solutions in DMSO. The DMSO concentration in the reaction batch was 1% v/v. The PDE activity is not impaired with this DMSO concentration. Having started the reaction by the addition of enzyme, the samples were incubated at 22° C. for 20 min. The reaction was stopped by the addition of SPA bead suspension which contains the zinc sulfate concentration provided according to the manufacturer. Then, the beads are allowed to sediment for 30 min and the plates are analyzed on the luminescence microtiter plate reader Fluostar Optima (BMG Labtechologies).
[^3H]-cAMP was used as a substrate for determining the activity of PDE-2, -3, -4 and -7 and [^3H]-cGMP for determining the activity of PDE-5. The non-specific enzyme activities were determined in the presence of 100 μM rolipram (for PDE-4) and in the presence of 100 μM IBMX (for PDE-3 and -5) and subtracted from the test values. The incubation samples of the PDE-3 assay contain 10 μM rolipram to inhibit possible contaminations by PDE-4. The PDE-2 activity is tested using a SPA assay by Amersham Biosciences in the presence of the PDE-2 activator 5 μM cGMP. […] The selectivity as to PDEs 2, 3 and 5 has a factor of 100 to 10 000.

T1 sequence (P27815 342-704): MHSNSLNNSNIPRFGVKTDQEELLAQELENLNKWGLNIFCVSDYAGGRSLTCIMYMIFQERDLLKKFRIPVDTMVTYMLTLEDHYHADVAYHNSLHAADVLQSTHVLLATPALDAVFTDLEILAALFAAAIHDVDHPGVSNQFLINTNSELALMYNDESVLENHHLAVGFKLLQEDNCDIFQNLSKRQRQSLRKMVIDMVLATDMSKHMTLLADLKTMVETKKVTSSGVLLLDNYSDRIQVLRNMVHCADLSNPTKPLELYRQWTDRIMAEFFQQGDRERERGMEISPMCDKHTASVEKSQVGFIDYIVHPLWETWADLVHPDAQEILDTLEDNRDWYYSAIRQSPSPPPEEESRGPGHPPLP

SMILES | IC50
CCOc1ccc(-c2cc(CC)c3c(n2)sc2c(OCC)nc(N4CCNCC4)nc23)cc1 [4-Ethoxy-7-(4-ethoxy-phenyl)-9-ethyl-2-(piperazin-1-yl)-pyrido[3′,2′:4,5]thieno[3,2-d]pyrimidine] | < 2 nM
CCOc1nc(N2CCNCC2)nc2c1sc1nc(-c3ccc(OC)cc3)cc(C(F)(F)F)c12 [4-Ethoxy-7-(4-methoxy-phenyl)-2-(piperazin-1-yl)-9-trifluoromethyl-pyrido[3′,2′:4,5]thieno[3,2-d]pyrimidine] | < 2 nM
CCOc1nc(N2CCNCC2)nc2c1sc1nc(-c3ccc(OC)cc3)c(Cc3ccc([N+](=O)[O-])cc3)c(C)c12 [4-Ethoxy-7-(4-methoxy-phenyl)-9-methyl-8-(4-nitro-benzyl)-2-(piperazin-1-yl)-pyrido[3′,2′:4,5]thieno[3,2-d]pyrimidine] | 2 to 50 nM
CCOc1nc(N2CCNCC2)nc2c1sc1nc(-c3ccc(C)cc3)cc(C(C)C)c12 [4-Ethoxy-7-(4-methyl-phenyl)-9-iso-propyl-2-(piperazin-1-yl)-pyrido[3′,2′:4,5]thieno-[3,2-d]pyrimidine] | < 2 nM
CCOc1nc(N2CCNCC2)nc2c1sc1nc(-c3ccc(SC)cc3)cc(C(F)(F)F)c12 [4-Ethoxy-7-(4-methylthiophenyl)-2-(piperazin-1-yl)-9-trifluoromethyl-pyrido[3′,2′:4,5]thieno[3,2-d]pyrimidine] | < 2 nM
CCOc1nc(N2CCNCC2)nc2c1sc1nc(-c3ccc(N4CCOCC4)cc3)cc(C(F)(F)F)c12 [4-Ethoxy-7-(4-morpholinophenyl)-2-(piperazin-1-yl)-9-trifluoromethyl-pyrido[3′,2′:4,5]thieno[3,2-d]pyrimidine] | 2 to 50 nM
CCOc1nc(N2CCNCC2)nc2c1sc1nc(-c3ccc([N+](=O)[O-])cc3)cc(C(F)(F)F)c12 [4-Ethoxy-7-(4-nitro-phenyl)-2-piperazin-1-yl-9-trifluoromethyl-pyrido[3′,2′:4,5]thieno[3,2-d]pyrimidine] | 2 to 50 nM
CCOc1nc(N2CCNCC2)nc2c1sc1nc(C)cc(-c3ccccc3)c12 [4-Ethoxy-7-methyl-9-phenyl-2-(piperazin-1-yl)-pyrido[3′,2′:4,5]thieno[3,2-d]pyrimidine] | 2 to 50 nM
CCOc1nc(N2CCNCC2)nc2c1sc1nc(-c3ccc4c(c3)OCCO4)cc(CC)c12 [4-Ethoxy-9-ethyl-7-(2,3-dihydrobenzo[b][1,4]dioxin-6-yl)-2-(piperazin-1-yl)-pyrido[3′,2′:4,5]thieno[3,2-d]pyrimidine] | < 2 nM
CCOc1nc(N2CCNCC2)nc2c1sc1nc(-c3ccc4c(c3)OCO4)cc(CC)c12 [4-Ethoxy-9-ethyl-7-(3,4-methylenedioxyphenyl)-2-piperazin-1-yl-pyrido[3′,2′:4,5]thieno-[3,2-d]pyrimidine] | < 2 nM
CCOc1nc(N2CCNCC2)nc2c1sc1nc(N3CCN(c4ncccn4)CC3)cc(CC)c12 [4-Ethoxy-9-ethyl-7-(4-(pyrimidyl-2-yl)piperazin-1-yl)-2-piperazin-1-yl-pyrido[3′,2′:4,5]thieno[3,2-d]pyrimidine] | < 2 nM
CCOc1nc(N2CCNCC2)nc2c1sc1nc(-c3ccc(I)cc3)cc(CC)c12 [4-Ethoxy-9-ethyl-7-(4-iodo-phenyl)-2-(piperazin-1-yl)-pyrido[3′,2′:4,5]thieno[3,2-d]pyrimidine] | < 2 nM
CCOc1nc(N2CCNCC2)nc2c1sc1nc(-c3ccc(OC)cc3)cc(CC)c12 [4-Ethoxy-9-ethyl-7-(4-methoxyphenyl)-2-(piperazin-1-yl)-pyrido[3′,2′:4,5]thieno[3,2-d]pyrimidine] | < 2 nM
CCOc1nc(N2CCNCC2)nc2c1sc1nc(-c3ccc(C)cc3)cc(CC)c12 [4-Ethoxy-9-ethyl-7-(4-methyl-phenyl)-2-(piperazin-1-yl)-pyrido[3′,2′:4,5]thieno[3,2-d]pyrimidine] | < 2 nM
CCOc1nc(N2CCNCC2)nc2c1sc1nc(-c3ccc(SC)cc3)cc(CC)c12 [4-Ethoxy-9-ethyl-7-(4-methylthio-phenyl)-2-(piperazin-1-yl)-pyrido[3′,2′:4,5]thieno[3,2-d]pyrimidine] | < 2 nM
CCOc1nc(N2CCNCC2)nc2c1sc1nc(-c3ccc(Oc4ccc(OC)cc4)cc3)cc(CC)c12 [4-Ethoxy-9-ethyl-7-[4-(4-methoxyphenoxy)phenyl]-2-(piperazin-1-yl)-pyrido[3′,2′:4,5]thieno[3,2-d]pyrimidine] | < 2 nM
CCOc1nc(N2CCNCC2)nc2c1sc1nc(-c3ccc(-c4cc(OC)c(OC)c(OC)c4)cc3)nc(C)c12 [4-Ethoxy-9-methyl-2-piperazin-1-yl-7-(3′,4′,5′-trimethoxybiphen-4-yl)-thieno[2,3-d:4,5-d′]dipyrimidine] | < 2 nM
CCOc1nc(N2CCNCC2)nc2c1sc1nc(-c3ccc(-c4cccnc4)cc3)nc(C)c12 [4-Ethoxy-9-methyl-2-piperazin-1-yl-7-(4-[3-pyridyl]-phenyl)-thieno[2,3-d:4,5-d′]dipyrimidine] | < 2 nM
CCOc1nc(N2CCNCC2)nc2c1sc1nc(-c3ccc(-c4cncnc4)cc3)nc(C)c12 [4-Ethoxy-9-methyl-2-piperazin-1-yl-7-(4-[5-pyrimidinyl]-phenyl)-thieno[2,3-d:4,5-d′]dipyrimidine] | 2 to 50 nM
CCOc1nc(N2CCNCC2)nc2c1sc1nc(-c3ccc(-c4ccn(C(=O)OC(C)(C)C)c4)cc3)nc(C)c12 [4-Ethoxy-9-methyl-2-piperazin-1-yl-7-(4-[N—BOC-3-pyrrolyl]-phenyl)-thieno[2,3-d:4,5-d′]dipyrimidine] | 2 to 50 nM

Results, then the compound that gave them:

IC50 | SMILES
2 to 50 nM | CCOc1nc(N2CCNCC2)nc2c1sc1nc(-c3ccc(F)cc3)cc(C(F)(F)F)c12 [4-Ethoxy-7-(4-fluoro-phenyl)-2-piperazin-1-yl-9-trifluoromethyl-pyrido[3′,2′:4,5]thieno[3,2-d]pyrimidine]
< 2 nM | CCOc1nc(N2CCNCC2)nc2c1sc1nc(-c3ccc(I)cc3)cc(C(F)(F)F)c12 [4-Ethoxy-7-(4-iodo-phenyl)-2-(piperazin-1-yl)-9-trifluoromethyl-pyrido[3′,2′:4,5]thieno[3,2-d]pyrimidine]
2 to 50 nM | CCOc1nc(N2CCNCC2)nc2c1sc1nc(-c3ccc(OC)cc3)nc(C)c12 [4-Ethoxy-7-(4-methoxy-phenyl)-9-methyl-2-piperazin-1-yl-thieno[2,3-d:4,5-d′]dipyrimidine]
< 2 nM | CCOc1nc(N2CCNCC2)nc2c1sc1nc(-c3ccc(C)cc3)cc(C(F)(F)F)c12 [4-Ethoxy-7-(4-methyl-phenyl)-2-(piperazin-1-yl)-9-trifluoromethyl-pyrido[3′,2′:4,5]thieno[3,2-d]pyrimidine]
2 to 50 nM | CCOc1nc(N2CCNCC2)nc2c1sc1nc(-c3ccc(C(F)(F)F)cc3)cc(C)c12 [4-Ethoxy-7-(4-trifluoro-methyl-phenyl)-9-methyl-2-(piperazin-1-yl)-pyrido[3′,2′:4,5]thieno[3,2-d]pyrimidine]
2 to 50 nM | CCOc1nc(N2CCNCC2)nc2c1sc1nc(-c3ccc(OCc4ccc([N+](=O)[O-])cc4)cc3)cc(C(F)(F)F)c12 [4-Ethoxy-7-[4-(4-nitrobenzyloxy)-phenyl]-2-piperazin-1-yl-9-trifluoromethyl-pyrido[3′,2′:4,5]thieno[3,2-d]pyrimidine]
2 to 50 nM | CCOc1nc(N2CCNCC2)nc2c1sc1nc(N3CCN(c4ccccc4)CC3)cc(CC)c12 [4-Ethoxy-9-ethyl-7-(4-phenyl-piperazin-1-yl)-2-piperazin-1-yl-pyrido[3′,2′:4,5]thieno[3,2-d]pyrimidine]
< 2 nM | CCOc1nc(N2CCNCC2)nc2c1sc1nc(-c3ccc(-c4ccncc4)cc3)nc(C)c12 [4-Ethoxy-9-methyl-2-piperazin-1-yl-7-(4-[4-pyridyl]-phenyl)-thieno[2,3-d:4,5-d′]dipyrimidine]
2 to 50 nM | CCOc1nc(N2CCNCC2)nc2c1sc1nc(-c3ccc(OC(C)C)cc3)nc(C)c12 [4-Ethoxy-9-methyl-2-piperazin-1-yl-7-(4-iso-propoxy-phenyl)-thieno[2,3-d:4,5-d′]dipyrimidine]
2 to 50 nM | CCOc1nc(N2CCNCC2)nc2c1sc1nc(-c3cccc4ccccc34)nc(C)c12 [4-Ethoxy-9-methyl-7-(1-naphthyl)-2-piperazin-1-yl-thieno[2,3-d:4,5-d′]dipyrimidine]
2 to 50 nM | CCOc1nc(N2CCNCC2)nc2c1sc1nc(-c3ccc4c(c3)OCO4)cc(C)c12 [4-Ethoxy-9-methyl-7-(3,4-methylenedioxyphenyl)-2-piperazin-1-yl-pyrido[3′,2′:4,5]thieno-[3,2-d]pyrimidine]
